Measured values from PMC3809078 (Journal of natural products, 2013).

Experiments:
[1] = test system: MDA-MB-231 cells; assay: Cell proliferation/viability assay; assay type: cell-based, human
[2] = test system: T47D cells; assay: Cell proliferation/viability assay; assay type: cell-based, human
[3] = test system: retinoic acid receptors (RARs); conditions: cytotoxic activity attributed to it; cited from earlier work

Compound | effect on cell viability (in words) [1] | effect on cell viability (in words) [2] | action on retinoic acid receptors (in words) [3]
CC1=C(CC/C(C)=C/CC/C(C)=C/C[C@@H](O)C2=CC(=O)OC2)C(C)(C)C(=O)CC1 [Compound 1, thorectidaeolide A] | Neither 1, nor 2, or any of the other less active sesterterpenes suppressed | Neither 1, nor 2, or any of the other less active sesterterpenes suppressed | –
CC1=C(CC/C(C)=C/CC/C(C)=C/CCC2=CC(=O)OC2O)C(C)(C)CCC1 (stereo not shown) [Compound 11, luffariellolide] | significant level of cytotoxicity | significant level of cytotoxicity | agonist of retinoic acid receptors
CC(=O)O[C@H](C/C=C(\C)CC/C=C(\C)CCC1=C(C)CCC(=O)C1(C)C)C1=CC(=O)OC1 [Compound 2, 4-acetoxythorectidaeolide A] | Neither 1, nor 2, or any of the other less active sesterterpenes suppressed | Neither 1, nor 2, or any of the other less active sesterterpenes suppressed | –
